These are literature values, as cited in patent publication US9763453B2, “Antimicrobial coating for inhibition of bacterial adhesion and biofilm formation” (Bacterin International, Inc., priority 2004, dated 2017).

The conditions of this data set: aqueous solutions.

For the compound `[Ag][I]` [silver iodide], the Ksp is reported as ~10^−18.
